Measured values as given in US6686445B1, “Synthetic antineoplastic agents derived from dolastatin 15 and methods of making same” (Arizona Board of Regents, acting for and on behalf of …, priority 1997, dated 2004).
Where a SMILES comes first, the peptide text is derived from it. [ ]: non-standard residue; d: D form. The star is where a group is joined. NH(2-(2-pyridyl)ethyl) = c1ccc(CCN*)nc1; NH(4-Br-phenethyl) = Brc1ccc(CCN*)cc1; NMe2Val = CC(C)[C@@H](C(=O)*)N(C)C; X5 = O=[N+]([O-])c1ccc(CCN*)cc1; NH(thiazol-2-yl) = c1csc(N*)n1; NHPhenethyl = c1ccc(CCN*)cc1; NMeV = CN[C@H](C(=O)O)C(C)C; Hiv = CC(C)[C@H](O)C(=O)O; X2 = c1ccc2ncc(N*)cc2c1; X4 = COc1ccc(CCN*)cc1OC; X3 = c1ccc2sc(N*)nc2c1; X7 = Clc1cccc(CCN*)c1; NHBn = c1ccc(CN*)cc1; X6 = Fc1ccc(CCN*)cc1; NHPh = c1ccc(N*)cc1; X8 = Clc1ccccc1CCN*

Tests used:
[1] = tested on: murine P388 lymphocytic leukemia cells; assay: growth inhibition of murine P388 lymphocytic leukemia cells; format: cell-based; settings: dosage inhibiting tumor cell growth by 50%
Experimental: (§1) All compounds synthesized were first evaluated for in vitro antitumor activity against murine P388 lymphocytic leukemia cells and against murine L1210 leukemia cells and human CA46 Burkitt lymphoma cells using techniques described by Hamel & Lin (see: HAMEL, E., and LIN, C. M., […], Interaction of combretastatin, a new plant-derived antimitotic agent, with tubulin, Biochemical Pharmacology, 32, 3864). The compounds were also evaluated in the NCI's human tumor 60-cell-line in intro primary screen as described by Monks et al. (see: MONKS, A., SCUDIERO, et al., 1991, New colorimetric cytotoxicity assay for anticancer drug screening, Journal of the National Cancer Institute, 83, 757). Data analyses were performed using methods described by Boyd and Paull (see: BOYD, M. R., et al., 1995, Some practical considerations and applications of the National Cancer Institute in vitro anticancer drug discovery screen, Drug Development Research, 34, 91). A tubulin polymerization inhibition assay was performed according to a modified version of the procedure used previously and described by Muzaffar et al. (see: MUZAFFAR, A., et al., 1990, Antitubulin effects of derivatives of 3-demethylthiocolchicine, methylthio esters of natural colchicinoids, and thioketones derived from thiocolchicine, Comparison with colchicine, Journal of Medicinal Chemistry, 33, 567) to evaluate the effects of dolastatin 15 on cellular microtubule assembly. The new assay for these compounds employed a drug-tubulin preincubation (15 min.) with 10 μM tubulin in 0.8 M glutamate at 30° C., followed by addition of GTP and incubation (20 min.) at 30° C., with tubulin polymerization monitored turbidimetrically in GILFORD recording spectrophotometers.

[2] = tested on: human CA46 Burkitt lymphoma cells; settings: read-out: Human CA46 Burkitt Lymphoma IC50; cells counted after 20 hours
Experimental: as §1

[3] = tested on: NCI 60-cell-line in vitro human tumor panel; settings: read-out: Mean Panel GI50; mean ± S.D. of triplicate tests (* duplicate)
Experimental: as §1

[4] = tested on: murine L1210 leukemia cells; settings: read-out: Mouse Leukemia L1210 IC50; cells counted after 24 hours of growth
Experimental: as §1

[5] = tested on: human CA46 Burkitt lymphoma cells; assay: mitotic arrest in drug-treated CA46 Burkitt cells; format: cell-based; settings: 80 nM drug for 20 hours, control cells 3% mitotic
Experimental: To further verify the assumption that this entire series of compounds is acting intracellularly by interfering with tubulin function, the drug-treated Burkitt cells for mitotic arrest were analyzed.

Erwinia carotovora = assay: antimicrobial disk susceptibility test; format: cell-based; settings: twofold dilutions
Experimental: Antimicrobial disk susceptibility tests were performed according to the method established by the National Committee for Clinical Laboratory Standards (NCCLS, 1997). MUELLER-HINTON agar was used for susceptibility testing of Staphylococcus aureus, Enterococcus faecalis, Micrococcus luteus, Escherichia coli, Enterobacter cloacae, Bacillus subtilis, Pseudomonas aeruginosa, and Erwinia carotovora, Gonococcal Typing agar for Neisseria gonorrhoeae, and YM agar for Candida albicans and Cryptococcus neoformans. Immediately prior to susceptibility assays, compounds were reconstituted in sterile DMSO and twofold dilutions applied to sterile 6-mm disks. Zones of inhibition were read at 16 hours for bacterial cultures (except for M. luteus) and 42 hours for fungal cultures and M. luteus. MIC determinations were performed in duplicate.

tubulin = tubulin polymerization inhibition, 0.8 M glutamate at 30° C.; format: biochemical; settings: read-out: tubulin assembly IC50
Experimental: as §1
Since these high molecular weight polymers, like microtubules, scatter light, they make it impossible to quantify drug effects by turbidimetry or centrifugation. […] (no MgCl2 added to reactions).

SMILES | Mouse Leukemia P388 ED50 [1] [ng/mL] | IC50 [2] [nM] | GI50 [3] [nM] | IC50 [4] [nM] | % Mitotic Cells [5] [%] | Minimum inhibitory concentration, Erwinia carotovora (Erwinia carotovora) | IC50 (tubulin) [nM]
CC(C)[C@H](NC(=O)[C@H](C(C)C)N(C)C)C(=O)N(C)[C@H](C(=O)N1CCC[C@H]1C(=O)N1CCC[C@H]1C(=O)O[C@H](C(=O)NCc1ccccc1)C(C)C)C(C)C [Compound 12b] (NMe2Val-V[NMeV]PP[Hiv]-NHBn) | 0.42 | 0.3 | 0.79 ± 0.1 | 1 | 46 | 50-100 μg/disk | –
CC(C)[C@H](NC(=O)[C@H](C(C)C)N(C)C)C(=O)N(C)[C@H](C(=O)N1CCC[C@H]1C(=O)N1CCC[C@H]1C(=O)O[C@H](C(=O)NCCc1ccccn1)C(C)C)C(C)C [Compound 12k] (NMe2Val-V[NMeV]PP[Hiv]-{NH(2-(2-pyridyl)ethyl)}) | 0.40 | 2 | 3 ± 1.04 | 4 | 30 | 50-100 μg/disk | –
CC(C)[C@H](NC(=O)[C@H](C(C)C)N(C)C)C(=O)N(C)[C@H](C(=O)N1CCC[C@H]1C(=O)N1CCC[C@H]1C(=O)O[C@H](C(=O)NCCc1ccc(F)cc1)C(C)C)C(C)C [Compound 12d] (NMe2Val-V[NMeV]PP[Hiv]-X6) | 0.55 | 0.8 | 0.89 ± 0.29 | 4 | 46 | – | –
CC(C)[C@H](NC(=O)[C@H](C(C)C)N(C)C)C(=O)N(C)[C@H](C(=O)N1CCC[C@H]1C(=O)N1CCC[C@H]1C(=O)O[C@H](C(=O)Nc1cnc2ccccc2c1)C(C)C)C(C)C [Compound 12r] (NMe2Val-V[NMeV]PP[Hiv]-X2) | 0.29 | 2 | 2.31 | 2 | 42 | 50-100 μg/disk | –
COC(=O)[C@H](CCSC)NC(=O)[C@@H](OC(=O)[C@@H]1CCCN1C(=O)[C@@H]1CCCN1C(=O)[C@H](C(C)C)N(C)C(=O)[C@@H](NC(=O)[C@H](C(C)C)N(C)C)C(C)C)C(C)C [Compound 12n] (NMe2Val-V[NMeV]PP[Hiv]M-OMe) | 0.55 | 3 | 2.93 ± 0.93 | 3 | 44 | – | –
CC(C)[C@H](NC(=O)[C@H](C(C)C)N(C)C)C(=O)N(C)[C@H](C(=O)N1CCC[C@H]1C(=O)N1CCC[C@H]1C(=O)O[C@H](C(=O)NCCc1ccccc1Cl)C(C)C)C(C)C [Compound 12g] (NMe2Val-V[NMeV]PP[Hiv]-X8) | 0.33 | 2 | 0.81 ± 0.31 | 4 | 26 | – | –
CC(C)[C@H](NC(=O)[C@H](C(C)C)N(C)C)C(=O)N(C)[C@H](C(=O)N1CCC[C@H]1C(=O)N1CCC[C@H]1C(=O)O[C@H](C(=O)Nc1nccs1)C(C)C)C(C)C [Compound 12p] (NMe2Val-V[NMeV]PP[Hiv]-{NH(thiazol-2-yl)}) | 0.26 | 4 | 1.2 | 2 | 40 | 50-100 μg/disk | 8400
COc1ccc(CCNC(=O)[C@@H](OC(=O)[C@@H]2CCCN2C(=O)[C@@H]2CCCN2C(=O)[C@H](C(C)C)N(C)C(=O)[C@@H](NC(=O)[C@H](C(C)C)N(C)C)C(C)C)C(C)C)cc1OC [Compound 12j] (NMe2Val-V[NMeV]PP[Hiv]-X4) | 0.40 | 0.8 | 1.5 ± 0.58 | 2 | 31 | 50-100 μg/disk | –
CC(C)[C@H](NC(=O)[C@H](C(C)C)N(C)C)C(=O)N(C)[C@H](C(=O)N1CCC[C@H]1C(=O)N1CCC[C@H]1C(=O)O[C@H](C(=O)NCCc1cccc(Cl)c1)C(C)C)C(C)C [Compound 12f] (NMe2Val-V[NMeV]PP[Hiv]-X7) | 0.37 | 2 | 0.83 ± 0.41 | 4 | 38 | – | –
CC(C)[C@H](NC(=O)[C@H](C(C)C)N(C)C)C(=O)N(C)[C@H](C(=O)N1CCC[C@H]1C(=O)N1CCC[C@H]1C(=O)O[C@H](C(=O)NCCc1ccc([N+](=O)[O-])cc1)C(C)C)C(C)C [Compound 12i] (NMe2Val-V[NMeV]PP[Hiv]-X5) | 0.60 | 3 | 0.94 ± 0.41 | 4 | 36 | – | –
CC(C)[C@H](NC(=O)[C@H](C(C)C)N(C)C)C(=O)N(C)[C@H](C(=O)N1CCC[C@H]1C(=O)N1CCC[C@H]1C(=O)O[C@H](C(=O)Nc1ccccc1)C(C)C)C(C)C [Compound 12a] (NMe2Val-V[NMeV]PP[Hiv]-NHPh) | 0.52 | 2 | 1.25 ± 0.48 | 3 | 26 | – | 26000
COC(=O)[C@H](Cc1ccccc1)NC(=O)[C@@H](OC(=O)[C@@H]1CCCN1C(=O)[C@@H]1CCCN1C(=O)[C@H](C(C)C)N(C)C(=O)[C@@H](NC(=O)[C@H](C(C)C)N(C)C)C(C)C)C(C)C [Compound 12m] (NMe2Val-V[NMeV]PP[Hiv]F-OMe) | 0.54 | 1 | 3.76 ± 1.05 | 3 | 40 | 50-100 μg/disk | –
CC(C)[C@H](NC(=O)[C@H](C(C)C)N(C)C)C(=O)N(C)[C@H](C(=O)N1CCC[C@H]1C(=O)N1CCC[C@H]1C(=O)O[C@H](C(=O)NCCc1ccc(Br)cc1)C(C)C)C(C)C [Compound 12h] (NMe2Val-V[NMeV]PP[Hiv]-{NH(4-Br-phenethyl)}) | 0.36 | 2 | 0.81 ± 0.15 | 2 | 48 | – | –
CC(C)[C@H](NC(=O)[C@H](C(C)C)N(C)C)C(=O)N(C)[C@H](C(=O)N1CCC[C@H]1C(=O)N1CCC[C@H]1C(=O)NCc1ccccc1)C(C)C [LU103793, N-dimethyl-L-valyl-L-valyl-N-methyl-L-valyl-L-prolyl-L-prolyl-benzamide] (NMe2Val-V[NMeV]PP-NHBn) | – | – | – | – | – | – | 4000 ± 600
COC(=O)[C@@H]1CCCN1C(=O)[C@@H](OC(=O)[C@@H]1CCCN1C(=O)[C@@H]1CCCN1C(=O)[C@H](C(C)C)N(C)C(=O)[C@@H](NC(=O)[C@H](C(C)C)N(C)C)C(C)C)C(C)C [Compound 12o] (NMe2Val-V[NMeV]PP[Hiv]P-OMe) | 3.1 | 2 | 4.48 ± 0.44 | 4 | 42 | – | –
CC(C)[C@H](NC(=O)[C@H](C(C)C)N(C)C)C(=O)N(C)[C@H](C(=O)N1CCC[C@H]1C(=O)N1CCC[C@H]1C(=O)O[C@H](C(=O)Nc1nc2ccccc2s1)C(C)C)C(C)C [Compound 12q] (NMe2Val-V[NMeV]PP[Hiv]-X3) | 0.45 | 2 | 2.54 | 3 | 36 | 50-100 μg/disk | –
CC(C)[C@H](NC(=O)[C@H](C(C)C)N(C)C)C(=O)N(C)[C@H](C(=O)N1CCC[C@H]1C(=O)N1CCC[C@H]1C(=O)O[C@H](C(=O)NCCc1ccccc1)C(C)C)C(C)C [Compound 12c, N-[(2S)-O-[(N,N-Dimethyl-valyl)-valyl-(N-methyl-valyl)-prolyl-prolyl]-2-hydroxyisovalerlyl]-2-phenethylamide] (NMe2Val-V[NMeV]PP[Hiv]-NHPhenethyl) | 0.26 | 0.3 | 1.06 ± 0.48 | 2 | 45 | 50-100 μg/disk | –
